# Experimental data: publication PMC10299128, “The Parallel Structure–Activity Relationship Screening of Three Compounds Identifies the Common Agonist Pharmacophore of Pyrrolidine Bis-Cyclic Guanidine Melanocortin-3 Receptor (MC3R) Small-Molecule Ligands” (International Journal of Molecular Sciences, 2023)
# Key:
# mMC3R = mMC3R (Mus musculus, UniProt P33033); assay: AlphaScreen cAMP agonist assay, HEK293 cells stably expressing mMC3R; conditions: for mMC3R percent maximal stimulatory response (compared to NDP-MSH): at 1 mM, not enough stimulation to determine EC50; for mMC3R partial agonist efficacy bin: sigmoidal curve, efficacy <90% of NDP-MSH
# mMC3R, sequence (P33033 whole entry): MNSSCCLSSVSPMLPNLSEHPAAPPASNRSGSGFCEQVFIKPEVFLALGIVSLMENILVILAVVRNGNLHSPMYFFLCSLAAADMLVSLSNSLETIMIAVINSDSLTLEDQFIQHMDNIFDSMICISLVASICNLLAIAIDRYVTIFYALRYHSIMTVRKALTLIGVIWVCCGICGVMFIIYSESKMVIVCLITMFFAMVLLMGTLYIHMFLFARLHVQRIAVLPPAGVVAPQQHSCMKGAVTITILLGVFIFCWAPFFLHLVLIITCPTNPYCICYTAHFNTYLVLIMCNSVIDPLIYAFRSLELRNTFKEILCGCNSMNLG
# mMC1R = mMC1R (Mus musculus, UniProt Q01727); assay: AlphaScreen cAMP agonist assay, HEK293 cells stably expressing mMC1R; conditions: for mMC1R partial agonist efficacy bin: sigmoidal curve, efficacy <90% of NDP-MSH
# mMC1R, sequence (Q01727 whole entry): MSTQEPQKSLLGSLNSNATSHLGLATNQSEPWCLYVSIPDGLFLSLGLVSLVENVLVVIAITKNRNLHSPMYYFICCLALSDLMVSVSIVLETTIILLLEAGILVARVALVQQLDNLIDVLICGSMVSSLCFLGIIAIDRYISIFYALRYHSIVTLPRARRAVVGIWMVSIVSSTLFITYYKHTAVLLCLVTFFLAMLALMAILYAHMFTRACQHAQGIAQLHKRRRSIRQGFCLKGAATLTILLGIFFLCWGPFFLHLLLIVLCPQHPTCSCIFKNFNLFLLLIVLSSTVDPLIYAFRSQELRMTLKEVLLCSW
# mMC5R = mMC5R (Mus musculus, UniProt P41149); assay: AlphaScreen cAMP agonist assay, HEK293 cells stably expressing mMC5R; conditions: for mMC5R partial agonist efficacy bin: sigmoidal curve, efficacy <90% of NDP-MSH
# mMC5R, sequence (P41149 whole entry): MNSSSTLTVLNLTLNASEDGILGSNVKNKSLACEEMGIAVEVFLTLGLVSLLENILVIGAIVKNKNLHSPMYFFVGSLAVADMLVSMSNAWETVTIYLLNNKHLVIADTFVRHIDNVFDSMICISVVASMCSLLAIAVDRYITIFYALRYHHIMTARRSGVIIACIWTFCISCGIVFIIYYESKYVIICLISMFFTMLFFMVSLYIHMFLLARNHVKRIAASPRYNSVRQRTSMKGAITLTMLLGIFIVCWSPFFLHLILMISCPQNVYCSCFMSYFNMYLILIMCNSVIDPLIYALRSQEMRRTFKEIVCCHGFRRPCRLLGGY
# mMC4R = mMC4R (Mus musculus, UniProt P56450); assay: AlphaScreen cAMP agonist assay, HEK293 cells stably expressing mMC4R; conditions: for mMC4R percent maximal stimulatory response (compared to NDP-MSH): at 1 mM, not enough stimulation to determine EC50
# mMC4R, sequence (P56450 whole entry): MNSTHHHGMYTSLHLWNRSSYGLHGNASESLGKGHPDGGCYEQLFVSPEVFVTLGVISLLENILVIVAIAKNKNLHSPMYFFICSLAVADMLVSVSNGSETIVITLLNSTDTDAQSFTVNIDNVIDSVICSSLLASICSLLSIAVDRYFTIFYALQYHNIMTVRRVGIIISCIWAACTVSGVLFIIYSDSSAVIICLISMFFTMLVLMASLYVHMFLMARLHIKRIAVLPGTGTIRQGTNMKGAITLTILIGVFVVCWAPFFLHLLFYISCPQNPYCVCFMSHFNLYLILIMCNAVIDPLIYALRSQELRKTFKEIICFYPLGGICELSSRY
# [1] = at 1 mM, not enough stimulation to determine EC50
mMC3R percent maximal stimulatory response (compared to NDP-MSH) (mMC3R),EC50 (mMC1R),mMC1R partial agonist efficacy bin (mMC1R),EC50 (mMC5R),mMC5R partial agonist efficacy bin (mMC5R),mMC4R percent maximal stimulatory response (compared to NDP-MSH) (mMC4R),fold decreased mMC1R agonist potency (mMC1R; relative to 2718.001),mMC5R percent maximal stimulatory response (compared to NDP-MSH) (mMC5R; [1]),EC50 (mMC3R),mMC3R partial agonist efficacy bin (mMC3R),mMC1R percent maximal stimulatory response (compared to NDP-MSH) (mMC1R; [1]),fold decreased mMC5R agonist potency (mMC5R; relative to 2718.001),EC50 (mMC4R),"mMC4R partial agonist efficacy bin (mMC4R; sigmoidal curve, efficacy <90% of NDP-MSH)",fold decreased mMC1R agonist potency (mMC1R; relative to 2718.002),fold decreased mMC5R agonist potency (mMC5R; relative to 2718.002),SMILES
35% @ 1 mM,10 µM,B (B (51–90% receptor activation)),19 µM,B (B (51–90% receptor activation)),35% @ 1 mM,–,–,–,–,–,–,–,–,–,–,CCC[C@@H]1CN(CCN2CCC[C@H]2CN2C(=N)NC[C@H]2C(C)C)C(=N)N1CC1CCC(C(C)(C)C)CC1 (stereo partly shown) [Compound 2718.028]
50% @ 1 mM,4 ± 2 µM,B (B (51–90% receptor activation)),5 ± 2 µM,B (B (51–90% receptor activation)),60% @ 1 mM,–,–,–,–,–,–,–,–,–,–,CC(C)C[C@@H]1CNC(=N)N1C[C@@H]1CCCN1C[C@@H](Cc1ccccc1)N1C[C@H]([C@@H](C)O)N(CC2CCC(C(C)(C)C)CC2)C1=N (stereo partly shown) [Compound 2718.030]
55% @ 1 mM,2.3 ± 0.9 µM,–,–,–,55% @ 1 mM,7 fold,70% @ 1 mM,–,–,–,–,–,–,–,–,CC(C)C[C@@H]1CNC(=N)N1C[C@@H]1CCCN1C[C@H](Cc1ccccc1)N1C[C@@H]([C@H](C)O)N(CC2CCC(C(C)(C)C)CC2)C1=N (stereo partly shown) [Compound 2718.031]
–,0.4 ± 0.06 µM,–,0.6 ± 0.2 µM,–,55% @ 1 mM,–,–,1.5 ± 0.4 µM,B (B (51–90% receptor activation)),–,–,–,–,–,–,CC(C)C[C@@H]1CNC(=N)N1C[C@H]1CCCN1C[C@@H](Cc1ccccc1)N1C[C@@H]([C@H](C)O)N(CC2CCC(C(C)(C)C)CC2)C1=N (stereo partly shown) [Compound 2718.032]
–,0.38 ± 0.04 µM,–,0.9 ± 0.3 µM,–,60% @ 1 mM,–,–,3.8 ± 0.6 µM,B (B (51–90% receptor activation)),–,–,–,–,–,–,CC(C)C[C@H]1CNC(=N)N1C[C@@H]1CCCN1C[C@@H](Cc1ccccc1)N1C[C@@H]([C@H](C)O)N(CC2CCC(C(C)(C)C)CC2)C1=N (stereo partly shown) [Compound 2718.033]
50% @ 1 mM,–,–,3 ± 1 µM,–,55% @ 1 mM,–,–,–,–,75% @ 1 mM,12 fold,–,–,–,–,CC(C)C[C@H]1CNC(=N)N1C[C@H]1CCCN1C[C@H](Cc1ccccc1)N1C[C@H]([C@@H](C)O)N(CC2CCC(C(C)(C)C)CC2)C1=N (stereo partly shown) [Compound 2718.034]
55% @ 1 mM,3.7 ± 0.7 µM,–,23 µM,B (B (51–90% receptor activation)),55% @ 1 mM,12 fold,–,–,–,–,–,–,–,–,–,CC(C)C[C@@H]1CNC(=N)N1C[C@@H]1CCCN1C[C@H](Cc1ccccc1)N1C[C@H]([C@@H](C)O)N(CC2CCC(C(C)(C)C)CC2)C1=N (stereo partly shown) [Compound 2718.035]
50% @ 1 mM,0.9 ± 0.3 µM,–,5.8 ± 0.9 µM,B (B (51–90% receptor activation)),55% @ 1 mM,–,–,–,–,–,–,–,–,–,–,CC(C)C[C@@H]1CNC(=N)N1C[C@H]1CCCN1C[C@@H](Cc1ccccc1)N1C[C@H]([C@@H](C)O)N(CC2CCC(C(C)(C)C)CC2)C1=N (stereo partly shown) [Compound 2718.036]
50% @ 1 mM,0.9 ± 0.2 µM,B (B (51–90% receptor activation)),7 ± 1 µM,B (B (51–90% receptor activation)),55% @ 1 mM,–,–,–,–,–,–,–,–,–,–,CC(C)C[C@H]1CNC(=N)N1C[C@@H]1CCCN1C[C@@H](Cc1ccccc1)N1C[C@H]([C@@H](C)O)N(CC2CCC(C(C)(C)C)CC2)C1=N (stereo partly shown) [Compound 2718.037]
–,0.6 ± 0.1 µM,–,1.4 ± 0.3 µM,–,–,–,–,5.9 ± 0.9 µM,B (B (51–90% receptor activation)),–,5 fold,1.6 ± 0.3 µM,B (B (51–90% receptor activation)),–,–,CC(C)C[C@@H]1CNC(=N)N1C[C@H]1CCCN1C[C@H](Cc1ccccc1)N1C[C@@H]([C@H](C)O)N(CC2CCC(C(C)(C)C)CC2)C1=N (stereo partly shown) [Compound 2718.038]
50% @ 1 mM,4 ± 2 µM,B (B (51–90% receptor activation)),45 µM,B (B (51–90% receptor activation)),55% @ 1 mM,–,–,–,–,–,–,–,–,–,–,CC(C)C[C@H]1CNC(=N)N1C[C@@H]1CCCN1C[C@H](Cc1ccccc1)N1C[C@@H]([C@H](C)O)N(CC2CCC(C(C)(C)C)CC2)C1=N (stereo partly shown) [Compound 2718.039]
–,0.9 ± 0.3 µM,–,0.5 ± 0.03 µM,–,60% @ 1 mM,–,–,3.7 ± 0.4 µM,B (B (51–90% receptor activation)),–,–,–,–,–,–,CC(C)C[C@H]1CNC(=N)N1C[C@H]1CCCN1C[C@@H](Cc1ccccc1)N1C[C@@H]([C@H](C)O)N(CC2CCC(C(C)(C)C)CC2)C1=N (stereo partly shown) [Compound 2718.040]
60% @ 1 mM,40 µM,–,8 ± 1 µM,B (B (51–90% receptor activation)),60% @ 1 mM,125 fold,–,–,–,–,–,–,–,–,–,CC(C)C[C@@H]1CNC(=N)N1C[C@H]1CCCN1C[C@H](Cc1ccccc1)N1C[C@H]([C@@H](C)O)N(CC2CCC(C(C)(C)C)CC2)C1=N (stereo partly shown) [Compound 2718.041]
65% @ 1 mM,2.9 ± 0.2 µM,–,21.3 µM,B (B (51–90% receptor activation)),65% @ 1 mM,9 fold,–,–,–,–,–,–,–,–,–,CC(C)C[C@H]1CNC(=N)N1C[C@@H]1CCCN1C[C@H](Cc1ccccc1)N1C[C@H]([C@@H](C)O)N(CC2CCC(C(C)(C)C)CC2)C1=N (stereo partly shown) [Compound 2718.042]
55% @ 1 mM,3.5 ± 0.2 µM,B (B (51–90% receptor activation)),8 ± 2 µM,B (B (51–90% receptor activation)),55% @ 1 mM,–,–,–,–,–,–,–,–,–,–,CC(C)C[C@H]1CNC(=N)N1C[C@H]1CCCN1C[C@@H](Cc1ccccc1)N1C[C@H]([C@@H](C)O)N(CC2CCC(C(C)(C)C)CC2)C1=N (stereo partly shown) [Compound 2718.043]
–,7 ± 2 µM,B (B (51–90% receptor activation)),2.9 ± 0.9 µM,B (B (51–90% receptor activation)),50% @ 1 mM,–,–,5.6 ± 0.8 µM,A (A (20–50% receptor activation)),–,–,–,–,–,–,CC(C)C[C@H]1CNC(=N)N1C[C@H]1CCCN1C[C@H](Cc1ccccc1)N1C[C@@H]([C@H](C)O)N(CC2CCC(C(C)(C)C)CC2)C1=N (stereo partly shown) [Compound 2718.044]
–,1 ± 0.1 µM,–,2.2 ± 0.7 µM,–,50% @ 1 mM,–,–,3.5 ± 0.2 µM,B (B (51–90% receptor activation)),–,–,–,–,4 fold,8 fold,CC(C)C[C@@H]1CNC(=N)N1C[C@@H]1CCCN1C[C@@H](CC1CCCCC1)N1C[C@H]([C@@H](C)O)N(CC2CCC(C(C)(C)C)CC2)C1=N (stereo partly shown) [Compound 2718.045]
–,1.8 ± 0.2 µM,–,5 ± 1 µM,–,55% @ 1 mM,–,–,9 ± 1 µM,B (B (51–90% receptor activation)),–,–,–,–,7 fold,17 fold,CC(C)C[C@@H]1CNC(=N)N1C[C@@H]1CCCN1C[C@H](CC1CCCCC1)N1C[C@@H]([C@H](C)O)N(CC2CCC(C(C)(C)C)CC2)C1=N (stereo partly shown) [Compound 2718.046]
